Among the data in BindingDB's records for doi:10.1016/j.ejmech.2020.112549 (Sichuan University, 2020) are EC50 values, retold here.

A short description of assay [1]: Inhibition of reverse transcriptase L100I mutant in HIV-1 3B infected in human MT4 cells assessed as reduction in virus-induced cytopathic effect incubated for 5 days by MTT assay. In general terms: Cytopathic effects are the visible damage that an infection or toxin causes in cultured cells.
Assay [2] in a line: Inhibition of reverse transcriptase E138K mutant in HIV-1 3B infected in human MT4 cells assessed as reduction in virus-induced cytopathic effect incubated for 5 days by MTT assay.
Assay [3] is described as follows: Inhibition of reverse transcriptase Y181C mutant in HIV-1 3B infected in human MT4 cells assessed as reduction in virus-induced cytopathic effect incubated for 5 days by MTT assay.
Assay [4] is described as follows: Inhibition of reverse transcriptase K103N mutant in HIV-1 3B infected in human MT4 cells assessed as reduction in virus-induced cytopathic effect incubated for 5 days by MTT assay.
Assay [5] in a line: Inhibition of reverse transcriptase Y188L mutant in HIV-1 3B infected in human MT4 cells assessed as reduction in virus-induced cytopathic effect incubated for 5 days by MTT assay.

pEC50: −log10 of the molar value.

As a reminder, the pEC50 is the EC50 on a negative log10 scale, so that one unit is a factor of ten. Turning to `COc1cc(-c2ccc(C#N)cc2)ccc1C(O)c1ccnc(Nc2ccc(C#N)cc2)n1` (configuration not stated), the pEC50 in assay [1] was 6.95; in assay [2], 8.13; in assay [3], 7.49.

For the compound `COc1cc(-c2ccc(C#N)cc2)ccc1[C@@H](O)c1ccnc(Nc2ccc(C#N)cc2)n1`, the pEC50 in assay [1] is 5.90; in assay [2], 6.71; in assay [4], 6.36; in assay [3] it was 6.29.

`COc1cc(-c2ccc(C#N)cc2)ccc1[C@H](O)c1ccnc(Nc2ccc(C#N)cc2)n1`: the pEC50 in assay [1] was 7.17; in assay [4], 8.17; in assay [5] it was 7.06; in assay [3], 7.82.

As for `N#Cc1ccc(Nc2nccc(C(O)c3ccc(-c4ccc(C#N)cc4)cc3Cl)n2)cc1` (configuration not stated), the pEC50 was 7.04 in assay [1]; 8.14 in assay [2]; 8.23 in assay [4]; 6.53 in assay [5]; 7.85 in assay [3].

In the case of `N#Cc1ccc(Nc2nccc([C@H](O)c3ccc(-c4ccc(C#N)cc4)cc3Cl)n2)cc1`, the pEC50 was 5.80 in assay [1], 6.69 in assay [2], 6.60 in assay [4] and 6.10 in assay [3].

Consider `N#Cc1ccc(Nc2nccc([C@@H](O)c3ccc(-c4ccc(C#N)cc4)cc3Cl)n2)cc1`, for which the pEC50 in assay [1] was 7.28; in assay [2], 8.52; in assay [4] it was 8.49; in assay [5], 6.89; in assay [3], 7.85.

On to `N#Cc1ccc(Nc2nccc(C(O)c3ccc(-c4ccc(C#N)cc4)cc3F)n2)cc1` (configuration not stated), for which the pEC50 in assay [1] was 6.04; in assay [2], 7.54; in assay [4], 7.06; in assay [5] it was 5.38; in assay [3], 6.95.

As for `N#Cc1ccc(Nc2nccc([C@H](O)c3ccc(-c4ccc(C#N)cc4)cc3F)n2)cc1`, the pEC50 was 5.44 in assay [1]; 6.79 in assay [2]; 6.13 in assay [4]; under 4.52 in assay [5]; 5.93 in assay [3].

As for `N#Cc1ccc(Nc2nccc([C@@H](O)c3ccc(-c4ccc(C#N)cc4)cc3F)n2)cc1`, the pEC50 in assay [1] is 6.42; in assay [2] it was 8.03; in assay [4], 7.30; in assay [3], 7.11.

For `Cc1cc(-c2ccc(C#N)cc2)ccc1C(O)c1ccnc(Nc2ccc(C#N)cc2)n1` (configuration not stated), the pEC50 in assay [1] was 6.74; in assay [2], 8.01; in assay [4], 7.74; in assay [5], 6.21; in assay [3], 7.51.

Turning to `Cc1cc(-c2ccc(C#N)cc2)ccc1[C@@H](O)c1ccnc(Nc2ccc(C#N)cc2)n1`, the pEC50 in assay [1] is 5.58; in assay [2], 6.83; in assay [4] it was 6.32; in assay [3] it was 6.13.

`Cc1cc(-c2ccc(C#N)cc2)ccc1[C@H](O)c1ccnc(Nc2ccc(C#N)cc2)n1`: the pEC50 was 7.09 in assay [1]; 8.26 in assay [2]; 8.07 in assay [4]; 6.58 in assay [5]; 7.72 in assay [3].

As for `N#Cc1ccc(Nc2nccc(C(O)c3ccc(-c4ccc(C#N)cc4)cc3C(F)(F)F)n2)cc1` (configuration not stated), the pEC50 is 6.67 in assay [1]; 7.59 in assay [2]; 7.59 in assay [4]; 6.26 in assay [5]; 7.23 in assay [3].

As to `N#Cc1ccc(Nc2nccc([C@H](O)c3ccc(-c4ccc(C#N)cc4)cc3C(F)(F)F)n2)cc1`, the pEC50 in assay [1] is 5.76; in assay [2], 6.03; in assay [4] it was 5.72; in assay [5], under 4.62; in assay [3] it was 5.74.

Take `N#Cc1ccc(Nc2nccc([C@@H](O)c3ccc(-c4ccc(C#N)cc4)cc3C(F)(F)F)n2)cc1`: the pEC50 in assay [1] was 7.03; in assay [2] it was 8.04; in assay [4] it was 7.82; in assay [5] it was 6.50; in assay [3], 7.52.

Take `N#Cc1ccc(Nc2nccc(C(O)c3c(F)cc(-c4ccc(C#N)cc4)cc3F)n2)cc1` (configuration not stated): the pEC50 is 6.39 in assay [1]; 7.60 in assay [2]; 7.21 in assay [4]; 5.46 in assay [5]; 6.90 in assay [3].

Consider `N#Cc1ccc(Nc2nccc([C@H](O)c3c(F)cc(-c4ccc(C#N)cc4)cc3F)n2)cc1`, for which the pEC50 is 5.84 in assay [1]; 7.26 in assay [2]; 6.44 in assay [4]; 5.23 in assay [5]; 6.36 in assay [3].

On to `N#Cc1ccc(Nc2nccc([C@@H](O)c3c(F)cc(-c4ccc(C#N)cc4)cc3F)n2)cc1`, for which the pEC50 in assay [1] was 6.47; in assay [2] it was 8.08; in assay [4] it was 7.44; in assay [5], 5.65; in assay [3] it was 7.05.

On to `Cc1cc(-c2ccc(C#N)cc2)cc(C)c1C(O)c1ccnc(Nc2ccc(C#N)cc2)n1` (configuration not stated), for which the pEC50 is 7.31 in assay [1]; 7.80 in assay [2]; 8.15 in assay [4]; 6.38 in assay [5]; 7.64 in assay [3].

Turning to `Cc1cc(-c2ccc(C#N)cc2)cc(C)c1[C@@H](O)c1ccnc(Nc2ccc(C#N)cc2)n1`, the pEC50 was 6.78 in assay [1]; 7.72 in assay [2]; 7.68 in assay [4]; 5.66 in assay [5]; 7.34 in assay [3].

Regarding `Cc1cc(-c2ccc(C#N)cc2)cc(C)c1[C@H](O)c1ccnc(Nc2ccc(C#N)cc2)n1`, the pEC50 in assay [1] was 7.70; in assay [2] it was 8.14; in assay [4] it was 8.41; in assay [3], 8.13.
